Where a SMILES comes first, the peptide text is derived from it.
Assay: solubility pre-screen in an aqueous, acidic milieu; also: test concentration or dose not given here
Assay type: physicochemical

SMILES | Solubility test
CC(C)[C@H](NC(=O)[C@H](Cc1ccc(O)cc1)NC(=O)[C@@H](N)CCCNC(=N)N)C(=O)N[C@@H](C)C(=O)N[C@@H](CCCNC(=N)N)C(=O)N[C@@H](CCC(=O)O)C(=O)N[C@@H](CCC(N)=O)C(=O)N[C@@H](CO)C(=O)N[C@@H](CS)C(=O)N[C@@H](CCCNC(=N)N)C(=O)N[C@@H](CCCNC(=N)N)C(=O)N1CCC[C@H]1C(=O)N[C@@H](CC(N)=O)C(=O)O [HDM06] (H-RYVAREQSCRRPN-OH; N-terminus and C-terminus assumed) | YES
CC[C@H](C)[C@H](NC(=O)[C@H](CC(N)=O)NC(=O)[C@H](CCCNC(=N)N)NC(=O)[C@H](CCSC)NC(=O)[C@H](CC(=O)O)NC(=O)[C@@H](N)CC(C)C)C(=O)N[C@@H](CCC(N)=O)C(=O)N[C@H](C(=O)N[C@@H](CCCNC(=N)N)C(=O)NCC(=O)N[C@@H](CC(C)C)C(=O)N[C@@H](CCCCN)C(=O)N[C@@H](CCC(N)=O)C(=O)O)C(C)C [HDM33] (H-LDMRNIQVRGLKQ-OH; N-terminus and C-terminus assumed) | YES
CC[C@H](C)[C@H](NC(=O)[C@H](CCCCN)NC(=O)[C@H](CC(N)=O)NC(=O)[C@@H](NC(=O)[C@H](CC(N)=O)NC(=O)[C@@H]1CCCN1)C(C)C)C(=O)N[C@@H](CCCNC(=N)N)C(=O)N[C@@H](CCC(=O)O)C(=O)N[C@@H](C)C(=O)N[C@@H](CC(C)C)C(=O)N[C@@H](C)C(=O)N[C@@H](CCC(N)=O)C(=O)N[C@H](C(=O)O)[C@@H](C)O [HDM07] (H-PNVNKIREALAQT-OH) | YES
CSCC[C@H](NC(=O)[C@@H]1CCCN1C(=O)[C@H](CC(=O)O)NC(=O)[C@H](Cc1ccccc1)NC(=O)[C@@H](NC(=O)[C@@H](N)CCC(=O)O)[C@@H](C)O)C(=O)N[C@@H](CCCCN)C(=O)N[C@H](C(=O)N1CCC[C@H]1C(=O)N[C@@H](CC(=O)O)C(=O)N[C@@H](Cc1c[nH]cn1)C(=O)N[C@@H](CO)C(=O)N[C@@H](CC(=O)O)C(=O)N[C@@H](CCCCN)C(=O)O)C(C)C [HDM29A] (H-ETFDPMKVPDHSDK-OH) | YES
CC[C@H](C)[C@H](NC(=O)[C@H](Cc1ccc(O)cc1)NC(=O)[C@@H](N)CCC(=O)O)C(=O)N[C@@H](CCC(N)=O)C(=O)N[C@@H](Cc1c[nH]cn1)C(=O)N[C@@H](CC(N)=O)C(=O)NCC(=O)N[C@H](C(=O)N[C@H](C(=O)N[C@@H](CCC(N)=O)C(=O)N[C@@H](CCC(=O)O)C(=O)N[C@@H](CO)C(=O)N[C@@H](Cc1ccc(O)cc1)C(=O)O)C(C)C)C(C)C [HDM05] (H-EYIQHNGVVQESY-OH) | YES
CC(C)[C@H](NC(=O)CNC(=O)[C@H](CC(=O)O)NC(=O)[C@H](CCC(=O)O)NC(=O)[C@H](CO)NC(=O)[C@H](CCCCN)NC(=O)[C@@H](NC(=O)[C@H](CC(N)=O)NC(=O)[C@H](C)N)C(C)C)C(=O)N[C@H](C(=O)N[C@@H](CCCCN)C(=O)N[C@@H](C)C(=O)N[C@@H](Cc1c[nH]cn1)C(=O)O)C(C)C [HDM37] (H-ANVKSEDGVVKAH-OH) | YES
CC(C)[C@H](NC(=O)[C@H](CCCNC(=N)N)NC(=O)[C@@H](N)CCCCN)C(=O)NCC(=O)N[C@@H](CC(=O)O)C(=O)N[C@@H](C)C(=O)N[C@@H](CC(N)=O)C(=O)N[C@H](C(=O)N[C@@H](CCCCN)C(=O)N[C@@H](CO)C(=O)N[C@@H](CCC(=O)O)C(=O)N[C@@H](CC(=O)O)C(=O)NCC(=O)O)C(C)C [HDM36] (H-KRVGDANVKSEDG-OH) | YES
CC(C)[C@H](NC(=O)[C@H](C)NC(=O)[C@@H](N)CCC(=O)O)C(=O)N[C@@H](Cc1ccccc1)C(=O)N[C@@H](CCC(=O)O)C(=O)N[C@@H](C)C(=O)N[C@@H](CC(N)=O)C(=O)N[C@@H](CCC(N)=O)C(=O)N[C@@H](CC(N)=O)C(=O)N[C@H](C(=O)N[C@@H](CCCCN)C(=O)N[C@H](C(=O)N[C@@H](C)C(=O)N[C@@H](CCCCN)C(=O)O)[C@@H](C)O)[C@@H](C)O [HDM22A] (H-EAVFEANQNTKTAK-OH; N-terminus and C-terminus assumed) | YES
CSCC[C@H](NC(=O)[C@H](CCC(N)=O)NC(=O)[C@H](CCCCN)NC(=O)[C@H](CC(C)C)NC(=O)CNC(=O)[C@@H](N)CCCNC(=N)N)C(=O)N[C@@H](CCCCN)C(=O)N[C@@H](CCCNC(=N)N)C(=O)N[C@H](C(=O)NCC(=O)N[C@@H](CC(=O)O)C(=O)N[C@@H](C)C(=O)N[C@@H](CC(N)=O)C(=O)O)C(C)C [HDM35] (H-RGLKQMKRVGDAN-OH; N-terminus and C-terminus assumed) | YES
CSCC[C@H](NC(=O)[C@@H]1CCCN1C(=O)[C@H](CC(=O)O)NC(=O)[C@H](Cc1ccccc1)NC(=O)[C@@H](NC(=O)[C@@H](N)CCC(=O)O)[C@@H](C)O)C(=O)N[C@@H](CCCCN)C(=O)N[C@H](C(=O)N1CCC[C@H]1C(=O)N[C@@H](CC(=O)O)C(=O)N[C@@H](Cc1c[nH]cn1)C(=O)N[C@@H](CO)C(=O)N[C@@H](CC(=O)O)C(=O)O)C(C)C [HDM29] (H-ETFDPMKVPDHSD-OH) | YES
CC[C@H](C)[C@H](NC(=O)[C@H](CCCCN)NC(=O)[C@@H](N)CC(N)=O)C(=O)N[C@@H](CCCNC(=N)N)C(=O)N[C@@H](CCC(=O)O)C(=O)N[C@@H](C)C(=O)N[C@@H](CC(C)C)C(=O)N[C@@H](C)C(=O)N[C@@H](CCC(N)=O)C(=O)N[C@H](C(=O)N[C@@H](Cc1c[nH]cn1)C(=O)N[C@@H](CO)C(=O)N[C@@H](C)C(=O)O)[C@@H](C)O [HDM08] (H-NKIREALAQTHSA-OH) | YES
CSCC[C@H](NC(=O)[C@H](CCC(=O)O)NC(=O)[C@H](C)NC(=O)[C@H](CCCNC(=N)N)NC(=O)[C@@H](NC(=O)[C@@H](NC(=O)[C@@H](N)CC(=O)O)[C@@H](C)O)C(C)C)C(=O)N[C@H](C(=O)N[C@@H](CCCCN)C(=O)N[C@H](C(=O)N[C@@H](CC(C)C)C(=O)N[C@@H](C)C(=O)N1CCC[C@H]1C(=O)O)C(C)C)[C@@H](C)O [HDM49] (H-DTVRAEMTKVLAP-OH; N-terminus and C-terminus assumed) | YES
CC[C@H](C)[C@H](NC(=O)[C@@H](NC(=O)[C@@H](N)CS)[C@@H](C)CC)C(=O)N[C@@H](Cc1c[nH]cn1)C(=O)N[C@@H](CCCNC(=N)N)C(=O)NCC(=O)N[C@@H](CCCCN)C(=O)N1CCC[C@H]1C(=O)N[C@@H](Cc1ccccc1)C(=O)N[C@@H](CCC(N)=O)C(=O)N[C@@H](CC(C)C)C(=O)N[C@@H](CCC(=O)O)C(=O)N[C@@H](C)C(=O)O [HDM20] (H-CIIHRGKPFQLEA-OH; N-terminus and C-terminus assumed) | YES
CC[C@H](C)[C@H](NC(=O)[C@H](CC(N)=O)NC(=O)[C@@H](N)CCCNC(=N)N)C(=O)N[C@@H](CCC(N)=O)C(=O)N[C@H](C(=O)N[C@@H](CCCNC(=N)N)C(=O)NCC(=O)N[C@@H](CC(C)C)C(=O)N[C@@H](CCCCN)C(=O)N[C@@H](CCC(N)=O)C(=O)N[C@@H](CCSC)C(=O)N[C@@H](CCCCN)C(=O)N[C@@H](CCCNC(=N)N)C(=O)N[C@H](C(=O)NCC(=O)O)C(C)C)C(C)C [HDM34] (H-RNIQVRGLKQMKRVG-OH; N-terminus and C-terminus assumed) | YES
CC[C@H](C)[C@H](NC(=O)[C@H](CCC(=O)O)NC(=O)[C@H](Cc1c[nH]cn1)NC(=O)[C@H](CC(N)=O)NC(=O)[C@H](C)NC(=O)[C@H](CS)NC(=O)[C@H](CC(=O)O)NC(=O)[C@H](CCCCN)NC(=O)[C@@H](NC(=O)[C@H](CC(=O)O)NC(=O)[C@@H](NC(=O)[C@H](CCC(N)=O)NC(=O)[C@@H](N)CC(=O)O)C(C)C)C(C)C)C(=O)N[C@@H](CCCCN)C(=O)N[C@@H](CCCCN)C(=O)O [HDM19] (H-DQVDVKDCANHEIKK-OH) | YES
C[C@@H](O)[C@H](NC(=O)[C@H](CC(=O)O)NC(=O)[C@H](Cc1c[nH]c2ccccc12)NC(=O)[C@H](CO)NC(=O)[C@H](CC(N)=O)NC(=O)[C@@H](N)CCCNC(=N)N)C(=O)N[C@@H](CC(N)=O)C(=O)N[C@@H](Cc1c[nH]c2ccccc12)C(=O)NCC(=O)N[C@@H](CC(=O)O)C(=O)N[C@@H](CC(N)=O)C(=O)NCC(=O)N[C@@H](Cc1ccc(O)cc1)C(=O)NCC(=O)O [HDM16A] (H-RNSWDTNWGDNGYG-OH) | YES
CC[C@H](C)[C@H](N)C(=O)N[C@@H](CC(=O)O)C(=O)N[C@@H](CC(C)C)C(=O)N[C@@H](CCCNC(=N)N)C(=O)N[C@@H](CCC(N)=O)C(=O)N[C@@H](CCSC)C(=O)N[C@@H](CCCNC(=N)N)C(=O)N[C@H](C(=O)N[C@H](C(=O)N[C@H](C(=O)N1CCC[C@H]1C(=O)N[C@H](C(=O)N[C@@H](CCCNC(=N)N)C(=O)O)[C@@H](C)CC)[C@@H](C)O)C(C)C)[C@@H](C)O [HDM01] (H-IDLRQMRTVTPIR-OH; N-terminus and C-terminus assumed) | YES
CC(C)C[C@H](NC(=O)[C@H](CC(=O)O)NC(=O)[C@H](CC(C)C)NC(=O)[C@H](CCC(=O)O)NC(=O)[C@H](CO)NC(=O)[C@@H]1CCCN1C(=O)[C@@H](NC(=O)[C@H](CC(N)=O)NC(=O)[C@@H](NC(=O)[C@H](CO)NC(=O)[C@@H](N)CC(N)=O)C(C)C)C(C)C)C(=O)N[C@@H](CCCNC(=N)N)C(=O)N[C@@H](CO)C(=O)N[C@@H](CC(C)C)C(=O)N[C@@H](CCCNC(=N)N)C(=O)N[C@H](C(=O)O)[C@@H](C)O [HDM17] (H-NSVNVPSELDLRSLRT-OH) | YES
CC(C)C[C@H](NC(=O)[C@H](CC(=O)O)NC(=O)[C@H](CC(C)C)NC(=O)[C@H](CO)NC(=O)[C@H](CCC(N)=O)NC(=O)[C@H](CC(N)=O)NC(=O)[C@@H](N)CCCNC(=N)N)C(=O)N[C@@H](C)C(=O)N[C@@H](CCC(=O)O)C(=O)N[C@@H](CCC(N)=O)C(=O)N[C@@H](CCC(=O)O)C(=O)N[C@@H](CC(C)C)C(=O)N[C@H](C(=O)N[C@@H](CC(=O)O)C(=O)N[C@@H](CS)C(=O)N[C@@H](C)C(=O)N[C@@H](CO)C(=O)N[C@@H](CCC(N)=O)C(=O)N[C@@H](Cc1c[nH]cn1)C(=O)O)C(C)C [HDM03C] (H-RNQSLDLAEQELVDCASQH-OH; N-terminus and C-terminus assumed) | YES
CC[C@H](C)[C@H](NC(=O)[C@@H]1CCCN1C(=O)[C@@H](NC(=O)[C@@H](NC(=O)[C@@H](NC(=O)[C@@H](N)CCCNC(=N)N)[C@@H](C)O)C(C)C)[C@@H](C)O)C(=O)N[C@@H](CCCNC(=N)N)C(=O)N[C@@H](CCSC)C(=O)N[C@@H](CCC(N)=O)C(=O)NCC(=O)NCC(=O)N[C@@H](CS)C(=O)NCC(=O)O [HDM02] (H-RTVTPIRMQGGCG-OH; N-terminus and C-terminus assumed) | YES
